Test results reported in patent US20050158271A1, “Pharmaceutical applications of hydrotropic polymer micelles” (priority 2000, published 2005).
Values after ≈ are worked out from the molar mass of the structure shown.

Assays:
HT-29 = assay: Antitumor cytotoxicity (ED50), HT-29; format: cell-based; settings: HT-29 tumor cell line
Experimental: (§1) The antitumor cytotoxicities, as measured by ED50, of polymeric micelles on various cell lines were measured as shown in Table 7. […] Free paclitaxel and doxorubicin in ethanol were used as positive controls. The ED50 values of hydrotropic micelles are much lower than PLA-PEG and PPA-PEG micelles.

MDA231 = assay: Antitumor cytotoxicity (ED50), MDA231; format: cell-based; settings: MDA231 tumor cell line
Experimental: as §1

MCF-7 = assay: Antitumor cytotoxicity (ED50), MCF-7; format: cell-based; settings: MCF-7 tumor cell line
Experimental: as §1

SKOV-3 = assay: Antitumor cytotoxicity (ED50), SKOV-3; format: cell-based; settings: SKOV-3 tumor cell line
Experimental: as §1

[1] = Aqueous solubility of paclitaxel (intrinsic, clinical vehicle, hydrotropic agents)
Excerpt: The molecular structures of these hydrotropic agents are shown below.

[2] = 50:50 mixture of Cremophore EL and dehydrated ethanol, diluted in isotonic saline; cited from earlier work

## COc1cccc2c1C(=O)c1c(O)c3c(c(O)c1C2=O)C[C@@](O)(C(=O)CO)C[C@@H]3O[C@H]1C[C@H](N)[C@H](O)[C@H](C)O1 [Doxorubicin]
HT-29
  ED50 HT-29: 0.044 µg/mL (≈ 0.081 µM)
MDA231
  ED50 MDA231: 0.050 µg/mL (≈ 0.092 µM)
MCF-7
  ED50 MCF-7: 0.773 µg/mL (≈ 1.42 µM)
SKOV-3
  ED50 SKOV-3: 0.611 µg/mL (≈ 1.12 µM)

## CC(=O)O[C@H]1C(=O)[C@@]2(C)[C@H]([C@H](OC(=O)c3ccccc3)[C@]3(O)C[C@H](OC(=O)[C@H](O)[C@@H](NC(=O)c4ccccc4)c4ccccc4)C(C)=C1C3(C)C)[C@]1(OC(C)=O)CO[C@@H]1C[C@@H]2O [Paclitaxel, paclitaxel]
[1]
  increase in aqueous solubility over the intrinsic solubility: 5˜6 orders of magnitude
HT-29
  ED50 HT-29: 0.003 µg/mL (≈ 0.00351 µM)
MDA231
  ED50 MDA231: 0.033 µg/mL (≈ 0.0386 µM)
MCF-7
  ED50 MCF-7: 0.043 µg/mL (≈ 0.0504 µM)
SKOV-3
  ED50 SKOV-3: 0.006 µg/mL (≈ 0.00703 µM)
[2]
  paclitaxel solubility in formulation: ≤ 1200 µg/mL

## O=C([O-])c1ccccc1O.[Na+] [sodium salicylate, Sodium salicylate]
[1]; hydrotrope screening, in words
  hydrotropic property for paclitaxel (ability to increase aqueous paclitaxel solubility): excellent hydrotropes for paclitaxel
